≈ marks a conversion by molar mass, not a printed value. Read-outs that look alike come from different tables or passages of the source.
Experiments:
[1] = system: Clostridium perfringen CVCC52,8604; experiment: In-vitro antibacterial activity, MIC by broth dilution (anaerobic chamber); type: cell-based; settings: 24 h; for MIC: Clostridium
Procedure: (§1) All test compounds were dissolved in dimethyl sulfoxide (DMSO, Sigma, USA) and then diluted in Dulbecco’s modified Eagle’s medium (DMEM, Gibco, USA) at desired concentrations for cell proliferation analyses or diluted in nutrient broth medium for antimicrobial susceptibility testing respectively. The final concentration of DMSO in the DMEM culture medium was under 0.1% (v:v).
(§2) The preliminary antibacterial activities were obtained for selected compounds against various bacteria, namely: Staphyloccocus aureus ATCC25923 (Gram-positive bacteria), Clostridium perfringen CVCC52,8604 (anaerobes bacteria), Salmonella pullorum (Gram-negative bacteria), Escherichia coli ATCC25922 (Gram negative bacteria) and Aeromonas hydrophila (Gram-negative bacteria) were used in the study. Each strain was cultured in appropriate broth medium. Clostridium perfringen was incubated in an anaerobic chamber. The minimum inhibitory concentration (MIC) for each test compound was estimated using the broth dilution method. The MIC’s was determined for each strain/compound pairs that presented antimicrobial activity. The method was modified from Mohapatra›s methods ([14], [15]). Cell suspensions were prepared in 2 mL of liquid medium with concentrations of various tests of compounds in 15 mL culture tubes by inoculation with 100 μL of 10^6 cfu/mL from each stock. The cultures were incubated at 28 °C or 37 °C for 24 h. Tubes showing no visible turbidity represented the MIC, and subsequently, were inoculated on the right side of the 9cm sterile nutrient agar plates without various test compounds and incubated for 24 h (Clostridium perfringen was incubated in an anaerobic chamber.). The least concentration, at which no growth was observed, represented the minimum bactericidal concentration (MBC) ([16]).

[2] = system: normal human Chang liver cells; experiment: In-vitro cytotoxicity, MTT cell proliferation assay; type: cell-based; settings: 24 h incubation, concentration reducing viable cells by 50%
Procedure: as §1
(§3) HepG2 and normal human Chang liver cells were obtained from the Institute of Biochemistry and Cell Biology, Shanghai Institutes for Biological Sciences, Chinese Academy of Sciences (Shanghai, China). HepG2 and normal human Chang liver cells were cultured at 37˚Cwith 5% CO2 in DMEM supplemented with 2% L-glutamine, 10% fetal bovine serum (Gibco, USA), 100 U/mL penicillin and 100 […] (Gibco, USA).
(§4) The methodology for evaluating the cytotoxicity inhibitory activity of various test compounds towards cell proliferation has been described previously ([11], [17]). Cell proliferation inhibitory analyses were carried out using the 3-(4,5-dimethylthiazole-2-yl)-2,5-diphenyl tetrazolium bromide (MTT, Sigma, USA) assay. Briefly, cancers HepG2 and normal human Chang liver cells were harvested and resuspended in fresh growth medium. A 100 μL cell suspension (5 × 10^4 cells/mL) was aliquoted into each well of a 96-well culture plate. After 12 h incubation, the medium was replaced with fresh medium containing various concentrations of test compounds. The cells were then incubated for another 24 h. At the end of exposure, 10 μL of MTT solution (5 mg/mL) was added, and the cells were incubated for 4 h at 37 °C. The cells were treated with 100 μL DMSO, and absorbance was recorded at 570 nm using a microplate ELISA reader (ELX800, Bio-Tek, USA). All experiments were performed at least thrice, and data were presented as the mean of sixplicate wells ± standard deviation (SD). Cell inhibition was calculated as follows:
(§5) (OD of control group − OD of experimental group) / (OD of control group − OD of blank group) ×100%. The IC50 value for a compound was calculated using SPSS.

[3] = system: Escherichia coli ATCC25922; experiment: In-vitro antibacterial activity, MIC by broth dilution; type: cell-based; settings: for MIC: Escherichia coli, read-out: MIC values Escherichia coli ATCC25922
Procedure: as §1, §2

[4] = system: Staphyloccocus aureus ATCC25923; experiment: as above; type: cell-based; settings: 24 h; for MIC: read-out: MIC values Staphyloccocus aureus ATCC25923
Procedure: as §1, §2

Aeromonas hydrophila = experiment: as above; type: cell-based; settings: broth dilution, 24 h; for MIC: Aeromonas hydrophila, read-out: MIC values Aeromonas hydrophila
Procedure: as §1, §2

Salmonella pullorum = experiment: as above; type: cell-based; settings: 24 h; for MIC: Salmonella enterica, PULLORUM
Procedure: as §1, §2

HepG2 cells = experiment: In-vitro cytotoxicity, MTT cell proliferation assay; type: cell-based, human; settings: 24 h incubation, concentration reducing viable cells by 50%
Procedure: as §1, §3, §4, §5

[5] = system: Gram-positive and Gram-negative bacteria; experiment: Antibacterial activity class based on the MIC results; type: cell-based
Procedure: as §2
In this study, activity of quinoxaline-1, 4-dioxides and their deoxygenations was tested against selected Gram-negative bacteria (Escherichia coli, Salmonella pullorum and Aeromonas hydrophila), Gram-positive bacteria (Staphyloccocus aureus and Clostridium perfringen). The in-vitro antibacterial activity was based on the MIC results: Strong antibacterial activity, if MIC is less than 50 μg/mL; Moderate, if MIC is in between 50 and 250 μg/mL; No activity, if MIC is more than 500 μg/mL.

[6] = Homo sapiens, Chang liver, 24 h
[7] = ATCC25922, broth dilution, 24 h

| Molecule | MIC [1] [µg/mL] | IC50 [2, 6] [µM] | MIC [3, 7] [µg/mL] | MIC ([4]; broth dilution) [µg/mL] | MIC (Aeromonas hydrophila) [µg/mL] | MIC (Salmonella pullorum) [µg/mL] | IC50 (HepG2 cells; Homo sapiens, HepG2, 24 h) [µM] | MIC ([3]; ATCC25922, 24 h) [µg/mL] | MIC [4] [µg/mL] | antibacterial activity against Gram-positive and Gram-negative bacteria [5] | IC50 (HepG2 cells) [µM] | IC50 [2] [µM] | MIC values Clostridium perfringen [1] [µg/mL] | MIC values Escherichia coli ATCC25922 ([3]; broth dilution, 24 h) [µg/mL] | MIC values Staphyloccocus aureus ATCC25923 ([4]; broth dilution) [µg/mL] | MIC values Aeromonas hydrophila (Aeromonas hydrophila) [µg/mL] | MIC values Salmonella pullorum (Salmonella pullorum) [µg/mL] |
| --- | --- | --- | --- | --- | --- | --- | --- | --- | --- | --- | --- | --- | --- | --- | --- | --- | --- |
| Cc1nc2ccccc2nc1C(=O)/C=C/c1ccc(N(C)C)cc1 [Compound 5h] | > 500 | 567 ± 26.7 | > 500 | > 500 | > 500 | > 500 | 626 ± 25.4 |  |  |  |  |  |  |  |  |  |  |
| Cc1nc2ccccc2nc1C(=O)/C=C/c1ccc(Cl)cc1 [Compound 5g] | > 500 | 689 ± 46.2 | > 500 | > 500 | > 500 | > 500 | 533 ± 24.8 |  |  |  |  |  |  |  |  |  |  |
| Cc1c(C(=O)/C=C/c2ccc(N(C)C)cc2)[n+]([O-])c2ccccc2[n+]1[O-] [Compound 3h] | 447 (≈ 1280 µM) | 509 ± 14.8 |  |  | 223 (≈ 639 µM) | > 500 | 395 ± 14.6 | 447 (≈ 1280 µM) | 447 (≈ 1280 µM) | little or no activity |  |  |  |  |  |  |  |
| Cc1c(C(=O)/C=C/c2ccc([N+](=O)[O-])cc2)[n+]([O-])c2ccccc2[n+]1[O-] [Compound 3e] | 449 (≈ 1280 µM) | 536 ± 22.9 |  |  | 112 (≈ 320 µM) | 225 (≈ 639 µM) | 449 ± 19.4 | 449 (≈ 1280 µM) | 449 (≈ 1280 µM) | little or no activity |  |  |  |  |  |  |  |
| CC(=O)c1c(C)[n+]([O-])c2ccccc2[n+]1[O-] [Compound 2, 2-acetyl-3-methylquinoxaline-1,4-dioxide] | 8.72 (≈ 40 µM) | 263 ± 3.11 | 4.36 (≈ 20 µM) | 17.4 (≈ 79.9 µM) | 17.4 (≈ 79.9 µM) | 17.4 (≈ 79.9 µM) | 288 ± 9.74 |  |  | strong or moderate activity |  |  |  |  |  |  |  |
| Cc1nc2ccccc2nc1C(=O)/C=C/c1cccc(O)c1 [Compound 5b] | > 500 | 463 ± 9.91 | > 500 | > 500 | 371 (≈ 1280 µM) | > 500 | 526 ± 20.9 |  |  |  |  |  |  |  |  |  |  |
| Cc1c(C(=O)/C=C/c2ccc(Cl)cc2)[n+]([O-])c2ccccc2[n+]1[O-] [Compound 3g] | 435 (≈ 1280 µM) | 114 ± 4.59 | > 500 | 27.2 (≈ 79.8 µM) | > 500 | > 500 | 102 |  |  | little or no activity | 103 ± 4.08 |  |  |  |  |  |  |
| Cc1nc2ccccc2nc1C(=O)/C=C/c1cccc([N+](=O)[O-])c1 [Compound 5d] | > 500 | 499 ± 8.75 | > 500 | > 500 | > 500 | > 500 | 461 ± 4.49 |  |  |  |  |  |  |  |  |  |  |
| Cc1nc2ccccc2nc1C(=O)O [Compound 10, 3-methyl-quinoxaline-2-carboxylic acid] | > 500 | 2120 ± 90.1 | > 500 | > 500 | 481 (≈ 2560 µM) | > 500 | 2490 ± 133 |  |  |  |  |  |  |  |  |  |  |
| Cc1c(C(=O)/C=C/c2cccc([N+](=O)[O-])c2)[n+]([O-])c2ccccc2[n+]1[O-] [Compound 3d] | > 500 | 411 ± 17.1 | > 500 | 449 (≈ 1280 µM) | 449 (≈ 1280 µM) | 56.2 (≈ 160 µM) | 380 ± 10.6 |  |  | little or no activity |  |  |  |  |  |  |  |
| COc1ccc(/C=C/C(=O)c2nc3ccccc3nc2C)cc1 [Compound 5f] | > 500 | 531 ± 19.3 | > 500 | > 500 | > 500 | > 500 | 653 ± 32 |  |  |  |  |  |  |  |  |  |  |
| COc1ccc(/C=C/C(=O)c2c(C)[n+]([O-])c3ccccc3[n+]2[O-])cc1 [Compound 3f] | 26.9 (≈ 79.9 µM) | 87 | > 500 | 13.4 (≈ 40 µM) | > 500 | > 500 | 99 |  |  | little or no activity | 99.7 ± 2.97 | 86.9 ± 6.3 |  |  |  |  |  |
| Cc1nc2ccccc2nc1C(=O)/C=C/c1ccc([N+](=O)[O-])cc1 [Compound 5e] | > 500 | 590.1 ± 2.22 | > 500 | > 500 | > 500 | > 500 | 606 ± 34.6 |  |  |  |  |  |  |  |  |  |  |
| 2-(3-phenyl-2-propenyl) -3-methylquinoxaline [Compound 5a] |  |  |  |  |  |  |  |  |  |  | 451 ± 11.1 | 532 ± 7.66 | >500 | >500 | >500 | >500 | >500 |
| Cc1nc2ccccc2nc1C(=O)/C=C/c1ccco1 [Compound 7, 3-methyl-2-(3-fura-2-propenoyl)-quinoxaline] | > 500 | 469 ± 5.26 | > 500 | > 500 | 338 (≈ 1280 µM) | > 500 | 441 ± 12.3 |  |  |  |  |  |  |  |  |  |  |
| Cc1nc2ccccc2nc1C(=O)/C=C/c1ccccc1O [Compound 5c] | > 500 | 361 ± 10.2 | > 500 | > 500 | 371 (≈ 1280 µM) | > 500 | 274 ± 11.6 |  |  |  |  |  |  |  |  |  |  |
